Drawing on PubChem BioAssay (NCI), this text covers TGI for 15 molecules.

Holding throughout (assay): growth of human tumour cells (NCI), 48 h
Assay [1] deals with 786-0 renal.
For assay [2], the system named is A498 renal.
Assay [3] concerns BT-549 breast.
Assay [4] relates to HL-60(TB) leukemia.
In assay [5] the test system is IGROV1 ovarian.
Assay [6] concerns M14 melanoma.
Assay [7] has as its system RPMI-8226 leukemia.
Assay [8] concerns SK-MEL-28 melanoma.
In assay [9] the test system is SK-MEL-5 melanoma.
The test system of assay [10] is SR leukemia.
Assay [11] relates to T-47D breast.
Assay [12] deals with TK-10 renal.
Assay [13] concerns UACC-62 melanoma.

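How tested: cells in 96-well plates exposed to compound for 48 hours at five concentrations. TGI: concentration producing complete growth inhibition.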 Where a SMILES comes first, the peptide text is derived from it. The star is where a group is joined. Boc = CC(C)(C)OC(=O)*

In the case of `COC1=C[C@]2(CCC(=O)O2)[C@@H]2Cc3ccccc3[C@H](O)[C@@H]2C1=O`, the TGI in assay [1] was > 100 µM; in [2], > 100 µM; in [3] it was > 100 µM; in [4] it was 77.6 µM; in assay [5] it was > 100 µM; in [6], > 100 µM. The TGI in assay [7] is 38.5 µM; in assay [8] it was > 100 µM; in assay [9], 33.7 µM; in assay [10], 41.4 µM; in assay [11], 37.7 µM; in assay [12], > 100 µM. Moreover, in assay [13], the TGI was found to be 65.1 µM.
On to `C=C(C)[C@@H](O)[C@H](O)C[C@H](C)C1CC[C@]2(C)C1=CC[C@@H]1[C@@]3(C)CC[C@@H](OC(C)=O)C(C)(C)[C@@H]3C[C@@H](OC3OC(COC(C)=O)C(O)C(O)C3O)[C@]12C` (stereo not given in full), for which the TGI in [1] is 11.4 µM; in assay [2] it was 10.4 µM; in [3], 10.3 µM; in assay [4], 4.2 µM; in [5], 6.4 µM; in assay [6], 7.38 µM. The TGI in [7] stood at 4.43 µM; in assay [8], 6.08 µM; in assay [9] it was 3.73 µM; in assay [10], 4.2 µM; in [11], 8.51 µM; in assay [12], 10.6 µM. Besides, the TGI in assay [13] stood at 4.52 µM.
Take `Oc1c(CN2CCCC2)ccc2cccnc12`: the TGI is > 100 µM in assay [1]; > 70.3 µM in [2]; > 100 µM in assay [3]; > 53.9 µM in assay [4]; > 84.5 µM in assay [5]; 80.7 µM in assay [6]. For the same molecule, the TGI in [7] is 48.2 µM; in assay [8] it was > 100 µM; in assay [9] it was > 67.7 µM; in assay [10] it was > 100 µM; in assay [11], > 100 µM; in assay [12], 88.7 µM. Besides, the TGI in assay [13] was > 100 µM.
Regarding `Cc1ccc(S(=O)(=O)N2CCC[C@@H]2C(=O)O[C@@H]2CCC3CC=CC32)cc1` (stereo not given in full), the TGI was 55.4 µM in assay [1]; 81.1 µM in assay [2]; 44.3 µM in assay [3]; 64.2 µM in assay [4]; > 100 µM in [5]; > 100 µM in [6]. Besides, the TGI in [7] was 61.3 µM; in [8], > 100 µM; in assay [9], 29.2 µM; in assay [10], 61 µM; in [11], > 100 µM; in assay [12] it was > 100 µM. For the same molecule, the TGI in [13] is > 100 µM.
Consider `CC(C)C(Nc1ncnc2nc[nH]c12)C(=O)O` (stereo not given), for which the TGI in [1], in [2], in assay [3], in assay [4], in [5] and in assay [6] was > 100 µM in each case. Moreover, the TGI in assay [7], in [8], in [9], in [10], in [11] and in assay [12] was > 100 µM each time. For the same molecule, in assay [13], the TGI was > 100 µM.
Turning to `COc1ccc(-n2c(SC(CN3CCOCC3)CN3CCCC3=O)nc3ccccc3c2=O)cc1` (stereo not given), the TGI in assay [1], in assay [2], in assay [3], in assay [4], in [5] and in assay [6] was > 100 µM throughout. Besides, the TGI in [7], in [8], in [9], in assay [10], in [11] and in [12] was > 100 µM each time. Also, the TGI in assay [13] was > 100 µM.
`O=C1/C(=C/c2ccc(O)cc2)CCCC1CN1CCCCC1` (stereo not given): the TGI in assay [1] amounted to 2.38 µM; in assay [2] it was 20.4 µM; in assay [3], 6.89 µM; in [4] it was 0.924 µM; in assay [5] it was 3.8 µM; in [6] it was 8.07 µM. Further, the TGI in [7] was > 100 µM; in assay [8], 10.6 µM; in assay [9], 17.8 µM; in [10] it was 4.35 µM; in assay [11], 5.21 µM; in assay [12] it was 8.64 µM. Also, the TGI in assay [13] was found to be 3.46 µM.
`Cc1nnc(N)nc1/C=C\c1ccc(Cl)cc1Cl`: the TGI in assay [1] is > 100 µM; in assay [2], > 100 µM; in assay [3] it was > 100 µM; in assay [4] it was 53 µM; in assay [5] it was 39.4 µM; in [6], 85.3 µM. The TGI in assay [7] was > 100 µM; in [8] it was > 100 µM; in [9], 81.5 µM; in [10], > 100 µM; in assay [11] it was > 100 µM; in assay [12] it was > 100 µM. Also, the TGI in assay [13] is > 100 µM.
For the molecule `CC(=O)C1=C(C)O[C@@H]2O[C@H](COCc3ccccc3)[C@@H](OCc3ccccc3)[C@H](O)[C@@H]2S1`, the TGI was 60.6 µM in assay [1]; 71 µM in assay [2]; 46.4 µM in [3]; 39.7 µM in assay [4]; 40.9 µM in assay [5]; 39.8 µM in assay [6]. Also, the TGI in [7] was 42.6 µM; in [8], 64 µM; in assay [9] it was 32.2 µM; in assay [10] it was 46.1 µM; in assay [11], 21.5 µM; in assay [12], 51.3 µM. In [13], the TGI was found to be 31.8 µM.
Turning to `COC(=O)C(Cc1ccccc1)NC(=O)C(CS)NC(=O)OC(C)(C)C` (stereo not drawn) (Boc-Cys-Phe-OMe; configuration not given here), the TGI in assay [1], in [2], in assay [3], in assay [4], in [5] and in assay [6] was > 100 µM in each case. The TGI in assay [7], in [8], in [9], in assay [10], in assay [11] and in assay [12] was > 100 µM throughout. Besides, the TGI in assay [13] is > 100 µM.
Take `C/C=C1/CN2CCC34c5ccccc5N(C)C23C2CC1C4(C(=O)OC)C(OC(C)=O)O2` (stereo not given): the TGI in assay [1], in assay [2], in assay [3], in assay [4], in assay [5] and in [6] was > 100 µM in each case. The TGI in [7], in assay [8], in [9], in assay [10], in assay [11] and in assay [12] was > 100 µM each time. The TGI in assay [13] was > 100 µM.
Take `Cn1c2ccc(F)cc2c2ccc3c(c21)C(=O)C=CC3=O`: the TGI in [1] was 8.21 µM; in [2], > 100 µM; in assay [3], > 45 µM; in assay [4], 2 µM; in assay [5] it was 39 µM; in assay [6], 27.3 µM. Also, the TGI was 33.4 µM in assay [7]; 28.5 µM in assay [8]; 56.4 µM in assay [9]; > 20.2 µM in assay [10]; 9 µM in assay [11]; 13.7 µM in [12]. For the same molecule, in assay [13], the TGI is > 61.3 µM.
On to `CC(C)NC(=O)OCc1c(COC(=O)NC(C)C)c(-c2ccc[n+](COC(=O)Cc3ccccc3)c2)n2c1CCC2`, for which the TGI in assay [1] was 44.4 µM; in assay [2] it was 44.7 µM; in [3], 66.6 µM; in assay [4], > 100 µM; in assay [5] it was > 100 µM; in assay [6], > 100 µM. Moreover, the TGI in assay [7], in assay [8], in [9], in assay [10], in assay [11] and in assay [12] was > 100 µM throughout. The same molecule had a TGI in assay [13] of 44.7 µM.
Take `COC(=O)c1c(O)ccc2c1c1cc3ccccc3cc1n2Cc1cc(OC)cc(OC)c1`: the TGI in assay [1] was > 100 µM; in [2] it was > 34.3 µM; in assay [3], > 100 µM; in assay [4] it was 30.6 µM; in assay [5], 1.69 µM; in assay [6], > 100 µM. Further, the TGI was > 26.3 µM in assay [7]; > 100 µM in assay [8]; 18.5 µM in assay [9]; > 100 µM in assay [10]; > 63.4 µM in assay [11]; > 100 µM in assay [12]. In [13], the TGI is > 100 µM.
Turning to `CCC(=O)Nc1cccc(N=Cc2ccc(OC(=O)/C=C\c3ccccc3)cc2)c1`, the TGI in assay [1], in assay [2], in assay [3], in assay [4], in assay [5] and in assay [6] was > 75 µM throughout. Also, the TGI is > 75 µM in [7]; > 75 µM in assay [8]; > 75 µM in assay [9]; > 75 µM in assay [10]; 37.7 µM in assay [11]; > 75 µM in assay [12]. In assay [13], the TGI was > 75 µM.
